# Reference: patent publication US10112926B2 (priority 2014, dated 2018)
# Structures can show the parent of a compound that is named as a salt.
# Legend:
# PI 4-kinase beta = PI 4-kinase beta (Homo sapiens (Human), UniProt Q9UBF8); details: read-out: Assay D PI4Kβ IC50
# Vps34 = Vps34 (Homo sapiens (Human), UniProt Q8NEB9); details: read-out: Assay C VPS34 IC50
# mTOR = mTOR (Homo sapiens (Human), UniProt P42345); details: read-out: Assay G mTOR IC50
# Chain of PI 4-kinase beta (Q9UBF8 whole entry): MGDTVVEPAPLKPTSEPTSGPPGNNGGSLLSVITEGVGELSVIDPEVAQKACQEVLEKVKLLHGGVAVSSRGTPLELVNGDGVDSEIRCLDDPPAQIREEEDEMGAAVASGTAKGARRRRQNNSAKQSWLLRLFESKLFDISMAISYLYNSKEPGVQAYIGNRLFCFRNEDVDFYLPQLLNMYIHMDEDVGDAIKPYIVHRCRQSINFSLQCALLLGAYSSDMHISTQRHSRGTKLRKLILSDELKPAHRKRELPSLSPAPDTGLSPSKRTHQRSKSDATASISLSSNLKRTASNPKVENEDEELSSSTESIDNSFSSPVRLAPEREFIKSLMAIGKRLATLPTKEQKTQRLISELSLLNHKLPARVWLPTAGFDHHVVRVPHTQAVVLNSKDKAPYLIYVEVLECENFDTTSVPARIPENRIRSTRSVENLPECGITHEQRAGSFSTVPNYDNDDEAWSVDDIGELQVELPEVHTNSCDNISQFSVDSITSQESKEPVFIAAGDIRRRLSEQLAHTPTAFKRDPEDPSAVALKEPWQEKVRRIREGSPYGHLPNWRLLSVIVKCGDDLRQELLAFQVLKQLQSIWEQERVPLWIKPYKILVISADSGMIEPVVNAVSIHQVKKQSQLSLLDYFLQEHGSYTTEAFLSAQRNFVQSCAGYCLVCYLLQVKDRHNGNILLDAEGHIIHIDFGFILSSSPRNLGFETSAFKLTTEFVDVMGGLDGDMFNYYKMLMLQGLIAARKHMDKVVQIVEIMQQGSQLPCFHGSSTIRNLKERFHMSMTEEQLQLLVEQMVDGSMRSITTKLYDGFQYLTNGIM
# Chain of Vps34 (Q8NEB9 whole entry): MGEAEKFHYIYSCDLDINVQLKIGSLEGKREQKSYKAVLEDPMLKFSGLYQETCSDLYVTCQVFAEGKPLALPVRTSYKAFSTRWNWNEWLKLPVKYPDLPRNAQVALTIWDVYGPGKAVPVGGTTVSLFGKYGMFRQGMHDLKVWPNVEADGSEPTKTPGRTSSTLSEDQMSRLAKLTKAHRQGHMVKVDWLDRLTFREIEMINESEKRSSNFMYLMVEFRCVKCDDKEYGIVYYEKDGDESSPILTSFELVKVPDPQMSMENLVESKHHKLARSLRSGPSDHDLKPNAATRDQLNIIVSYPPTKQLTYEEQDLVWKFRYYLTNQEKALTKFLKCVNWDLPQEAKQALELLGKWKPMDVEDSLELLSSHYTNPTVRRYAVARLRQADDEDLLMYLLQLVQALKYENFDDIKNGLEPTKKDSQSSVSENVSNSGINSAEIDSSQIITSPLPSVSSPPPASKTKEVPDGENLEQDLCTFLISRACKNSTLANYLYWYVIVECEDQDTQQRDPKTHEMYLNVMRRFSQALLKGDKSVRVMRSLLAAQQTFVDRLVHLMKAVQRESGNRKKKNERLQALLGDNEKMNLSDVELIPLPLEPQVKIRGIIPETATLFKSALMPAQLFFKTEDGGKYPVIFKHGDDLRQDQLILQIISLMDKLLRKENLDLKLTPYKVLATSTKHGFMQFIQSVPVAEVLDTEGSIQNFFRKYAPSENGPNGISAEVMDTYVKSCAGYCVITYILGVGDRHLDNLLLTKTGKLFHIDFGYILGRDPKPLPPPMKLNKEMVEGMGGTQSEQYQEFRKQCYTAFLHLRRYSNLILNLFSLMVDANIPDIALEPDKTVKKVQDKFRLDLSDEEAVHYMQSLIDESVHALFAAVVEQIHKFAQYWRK
smiles,measurement,setting,value
"Cc1cc(-c2cc(-c3cc(S(=O)(=O)N[C@H]4CC[C@H](CO)CC4)ccc3C)cnc2N)ccn1 [Example 77, trans-3-(2-Amino-2′-methyl-[3,4′-bipyridin]-5-yl)-N-(−4-(hydroxymethyl)cyclohexyl)-4-methylbenzenesulfonamide hydrochloride]",IC50,PI 4-kinase beta,2.1 µM
same,IC50,Vps34,> 10 µM
same,IC50,mTOR,> 10 µM
"Cc1noc(-c2cc(-c3cc(S(=O)(=O)NCCC4(O)CCCC4)ccc3C)cnc2N)n1 [Example 37.11, 3-(6-Amino-5-(3-methyl-1,2,4-oxadiazol-5-yl)pyridin-3-yl)-N-(2-(1-hydroxycyclopentyl)ethyl)-4-methylbenzenesulfonamide]",IC50,PI 4-kinase beta,8.1 µM
same,IC50,Vps34,> 10 µM
same,IC50,mTOR,> 10 µM
"Cc1ccc(S(=O)(=O)N[C@H]2CC[C@H](O)CC2)cc1-c1cnc(N)c(-c2nc(C(F)F)no2)c1 [Example 70, 3-(6-Amino-5-(3-(difluoromethyl)-1,2,4-oxadiazol-5-yl)pyridin-3-yl)-N-((1r,4r)-4-hydroxycyclohexyl)-4-methylbenzenesulfonamide hydrochloride]",IC50,PI 4-kinase beta,8.2 µM
same,IC50,Vps34,> 10 µM
same,IC50,mTOR,> 10 µM
"Cc1ccc(S(=O)(=O)N[C@H]2CC[C@H](O)CC2)cc1-c1cnc(N)c(-c2cnn(C)n2)c1 [Example 4.5, trans 3-(6-Amino-5-(2-methyl-2H-1,2,3-triazol-4-yl)pyridin-3-yl)-N-(4-hydroxycyclohexyl)-4-methylbenzene sulfonamide hydrochloride]",IC50,PI 4-kinase beta,5.25 µM
same,IC50,Vps34,> 10 µM
same,IC50,mTOR,> 10 µM
"Cc1noc(-c2cc(-c3cc(S(=O)(=O)NCC4CCOC4)ccc3C)cnc2N)n1 (stereo not shown) [Example 29, 3-(6-Amino-5-(3-methyl-1,2,4-oxadiazol-5-yl)pyridin-3-yl)-4-methyl-N-((tetrahydrofuran-3-yl)methyl)benzenesulfonamide]",IC50,PI 4-kinase beta,9.9 µM
same,IC50,Vps34,> 10 µM
same,IC50,mTOR,> 10 µM
"Cc1noc(-c2cc(-c3cc(S(=O)(=O)N[C@H]4CC[C@H](O)CC4)ccc3C)cnc2N)n1 [Example 12, trans 3-[6-Amino-5-(3-methyl-[1,2,4]oxadiazol-5-yl)-pyridin-3-yl]-N-(4-hydroxy-cyclohexyl)-4-methyl-benzenesulfonamide, hydrochloride salt]",IC50,PI 4-kinase beta,5.3 µM
same,IC50,Vps34,> 10 µM
same,IC50,mTOR,> 10 µM
"Cc1ncc(-c2cc(-c3cc(S(=O)(=O)NCCC(C)(C)O)ccc3C)cnc2N)o1 [Example 13, 3-[6-Amino-5-(2-methyl-oxazol-5-yl)-pyridin-3-yl]-N-(3-hydroxy-3-methyl-butyl)-4-methyl-benzenesulfonamide, hydrochloride salt]",IC50,PI 4-kinase beta,4.4 µM
same,IC50,Vps34,> 10 µM
same,IC50,mTOR,1.6 µM
"Cc1noc(-c2cc(-c3cc(S(=O)(=O)NCC4(O)CCC4)ccc3C)cnc2N)n1 [Example 37.15, 3-(6-Amino-5-(3-methyl-1,2,4-oxadiazol-5-yl)pyridin-3-yl)-N-((1-hydroxycyclobutyl)methyl)-4-methylbenzenesulfonamide]",IC50,PI 4-kinase beta,5.4 µM
same,IC50,Vps34,> 10 µM
same,IC50,mTOR,> 10 µM
"Cc1noc(-c2cc(-c3cc(S(=O)(=O)NOCC(C)(C)O)ccc3C)cnc2N)n1 [Example 11, 3-[6-Amino-5-(3-methyl-[1,2,4]oxadiazol-5-yl)-pyridin-3-yl]-N-(2-hydroxy-2-methyl-propoxy)-4-methyl-benzenesulfonamide, hydrochloride salt]",IC50,PI 4-kinase beta,5.1 µM
same,IC50,Vps34,> 10 µM
same,IC50,mTOR,> 10 µM
"Cc1noc(-c2cc(-c3cc(S(=O)(=O)NCC4(C)COC4)ccc3C)cnc2N)n1 [Example 4.9, 3-(6-Amino-5-(3-methyl-1,2,4-oxadiazol-5-yl)pyridin-3-yl)-4-methyl-N-((3-methyloxetan-3-yl)methyl)benzene-sulfonamide]",IC50,PI 4-kinase beta,> 10 µM
same,IC50,Vps34,> 10 µM
same,IC50,mTOR,> 10 µM
"Cc1noc(-c2cc(-c3cc(S(=O)(=O)NCC4(CO)CCCC4)ccc3C)cnc2N)n1 [Example 37.13, 3-(6-Amino-5-(3-methyl-1,2,4-oxadiazol-5-yl)pyridin-3-yl)-N-((1-(hydroxymethyl)cyclopentyl)methyl)-4-methylbenzenesulfonamide]",IC50,PI 4-kinase beta,5 µM
same,IC50,Vps34,> 10 µM
same,IC50,mTOR,> 10 µM
"Cc1noc(-c2cc(-c3cc(S(=O)(=O)NOC(C)C)ccc3C)cnc2N)n1 [Example 45, 3-(6-Amino-5-(3-methyl-1,2,4-oxadiazol-5-yl)pyridin-3-yl)-N-isopropoxy-4-methylbenzenesulfonamide]",IC50,PI 4-kinase beta,7.4 µM
same,IC50,Vps34,> 10 µM
same,IC50,mTOR,9.1 µM
"Cc1cc(-c2cc(-c3cc(S(=O)(=O)NCC(C)(C)O)ccc3C)cnc2N)sn1 [Example 4.8, 3-(6-Amino-5-(3-methylisothiazol-5-yl)pyridin-3-yl)-N-(2-hydroxy-2-methylpropyl)-4-methyl-benzenesulfonamide hydrochloride]",IC50,PI 4-kinase beta,3.15 µM
same,IC50,Vps34,> 10 µM
same,IC50,mTOR,> 10 µM
"Cc1noc(-c2cc(-c3cc(S(=O)(=O)NCCC(C)(C)O)ccc3C)cnc2N)n1 [Example 5, 3-[6-Amino-5-(3-methyl-[1,2,4]oxadiazol-5-yl)-pyridin-3-yl]-N-(3-hydroxy-3-methyl-butyl)-4-methyl-benzenesulfonamide hydrochloride]",IC50,PI 4-kinase beta,4.9 µM
same,IC50,Vps34,> 9.55 µM
same,IC50,mTOR,6.5 µM
"Cc1cccc(NS(=O)(=O)c2ccc(C)c(-c3cnc(N)c(-c4cnn(CC(F)(F)F)c4)c3)c2)n1 [Example 1, 3-{6-Amino-5-[1-(2,2,2-trifluoro-ethyl)-1H-pyrazol-4-yl]-pyridin-3-yl}-4-methyl-N-(6-methyl-pyridin-2-yl)-benzenesulfonamide]",IC50,PI 4-kinase beta,1.95 µM
same,IC50,Vps34,> 9.1 µM
same,IC50,mTOR,2.37 µM
"Cc1cnc(-c2cc(-c3cc(S(=O)(=O)N[C@H]4CC[C@H](O)CC4)ccc3C)cnc2N)o1 [Example 5.2, trans 3-(6-Amino-5-(5-methyloxazol-2-yl)pyridin-3-yl)-N-(4-hydroxycyclohexyl)-4-methylbenzene sulfonamide hydrochloride]",IC50,PI 4-kinase beta,0.9 µM
same,IC50,Vps34,> 10 µM
same,IC50,mTOR,> 10 µM
"Cc1ccc(S(=O)(=O)NCC(C)(C)O)cc1-c1cnc(N)c(-c2nc(C(C)C)no2)c1 [Example 5.1, 3-(6-Amino-5-(3-isopropyl-1,2,4-oxadiazol-5-yl)pyridin-3-yl)-N-(2-hydroxy-2-methylpropyl)-4-methylbenzenesulfonamide hydrochloride]",IC50,PI 4-kinase beta,4.4 µM
same,IC50,Vps34,> 10 µM
same,IC50,mTOR,8.2 µM
"Cc1ccc(S(=O)(=O)NCCC(C)(C)O)cc1-c1cnc(N)c(-c2cnn(C)c2)c1 [Example 2, 3-(6-Amino-5-(1-methyl-1H-pyrazol-4-yl)pyridin-3-yl)-N-(3-hydroxy-3-methylbutyl)-4-methylbenzenesulfonamide]",IC50,PI 4-kinase beta,5.4 µM
same,IC50,Vps34,> 9.1 µM
same,IC50,mTOR,> 9.1 µM
"Cc1ccc(S(=O)(=O)NCCC(C)(C)O)cc1-c1cnc(N)c(-c2cnn(C)n2)c1 [Example 106, 3-(6-amino-5-(2-methyl-2H-1,2,3-triazol-4-yl)pyridin-3-yl)-N-(3-hydroxy-3-methylbutyl)-4-methylbenzenesulfonamide]",IC50,PI 4-kinase beta,6.4 µM
same,IC50,Vps34,> 10 µM
same,IC50,mTOR,7.6 µM
"Cc1ncc(-c2cc(-c3cc(S(=O)(=O)N[C@H]4CC[C@H](O)CC4)ccc3C)cnc2N)s1 [Example 97, 3-(6-amino-5-(2-methylthiazol-5-yl)pyridin-3-yl)-N-((1r,4r)-4-hydroxycyclohexyl)-4-methylbenzenesulfonamide]",IC50,PI 4-kinase beta,1.34 µM
same,IC50,Vps34,3.8 µM
same,IC50,mTOR,6.5 µM
"Cc1cc(-c2cc(-c3cc(S(=O)(=O)NO[C@H]4C[C@H](O)C4)ccc3C)cnc2N)on1 [Example 95, trans-3-(6-amino-5-(3-methylisoxazol-5-yl)pyridin-3-yl)-N-((1r,3r)-3-hydroxycyclobutoxy)-4-methylbenzenesulfonamide]",IC50,PI 4-kinase beta,0.86 µM
same,IC50,Vps34,> 10 µM
same,IC50,mTOR,> 10 µM
"Cc1noc(-c2cc(-c3cc(S(=O)(=O)NOC(C)(C)C)ccc3C)cnc2N)n1 [Example 47, 3-(6-Amino-5-(3-methyl-1,2,4-oxadiazol-5-yl)pyridin-3-yl)-N-(tert-butoxy)-4-methylbenzenesulfonamide]",IC50,PI 4-kinase beta,4.4 µM
same,IC50,Vps34,> 10 µM
same,IC50,mTOR,4 µM
"Cc1cc(-c2cc(-c3cc(S(=O)(=O)NC[C@H]4CCOC4)ccc3C)cnc2N)on1 [Example 4.7, (R)-3-(6-Amino-5-(3-methylisoxazol-5-yl)pyridin-3-yl)-4-methyl-N-((tetra hydrofuran-3-yl)methyl)benzene-sulfonamide hydrochloride]",IC50,PI 4-kinase beta,1.7 µM
same,IC50,Vps34,> 10 µM
same,IC50,mTOR,7.7 µM
"Cc1noc(-c2cc(-c3cc(S(=O)(=O)N[C@H]4CC[C@H](CO)CC4)ccc3C)cnc2N)n1 [Example 19, trans 3-[6-Amino-5-(3-methyl-[1,2,4]oxadiazol-5-yl)-pyridin-3-yl]-N-(4-hydroxymethyl-cyclohexyl)-4-methyl-benzenesulfonamide hydrochloride]",IC50,PI 4-kinase beta,1.3 µM
same,IC50,Vps34,> 10 µM
same,IC50,mTOR,> 10 µM
"Cc1noc(-c2cc(-c3cc(S(=O)(=O)NC4CCOCC4)ccc3C)cnc2N)n1 [Example 49, 3-(6-Amino-5-(3-methyl-1,2,4-oxadiazol-5-yl)pyridin-3-yl)-4-methyl-N-(tetrahydro-2H-pyran-4-yl)benzenesulfonamide]",IC50,PI 4-kinase beta,6.8 µM
same,IC50,Vps34,> 10 µM
same,IC50,mTOR,8.1 µM
"Cc1ncc(-c2cc(-c3cc(S(=O)(=O)NCCC(C)(C)O)ccc3C)cnc2N)s1 [Example 4, 3-(6-Amino-5-(2-methylthiazol-5-yl)pyridin-3-yl)-N-(3-hydroxy-3-methylbutyl)-4-methylbenzenesulfonamide]",IC50,PI 4-kinase beta,1.44 µM
same,IC50,mTOR,2.63 µM
"COC1(C)CN(S(=O)(=O)c2ccc(C)c(-c3cnc(N)c(-c4nc(C)no4)c3)c2)C1 [Example 37.2, 5-(5-((3-Methoxy-3-methylazetidin-1-yl)sulfonyl)-2-methylphenyl)-3-(3-methyl-1,2,4-oxadiazol-5-yl)pyridin-2-amine]",IC50,PI 4-kinase beta,> 10 µM
same,IC50,mTOR,> 10 µM
